Test results: US9724312B2, “Agent for the prevention, improvement or treatment of retinal disease” (ROHTO PHARMACEUTICAL CO., LTD., priority 2012, dated 2017)

Assays:
ARPE-19 = assay: Protective effect for retinal pigment epithelial cells against oxidative stress by hydrogen peroxide; assay type: cell-based, human; details: all-trans form content 280 μM, 14 h, then 750 μM hydrogen peroxide 2 h, FIG. 4, n=3
Source text: The involvement of oxidative stress in ophthalmologic diseases has been widely reported. Such involvement has been observed in, in addition to glaucoma and cataract, retinal diseases such as retinal diseases due to diabetes, hypertension, hyperlipemia, etc., age-related macular degeneration, retinopathy of prematurity, retinal vascular occlusion, retinal light damage, etc. (Nippon Ganka Gakkai Zasshi. 112, 22-29 (2008)). In the retina, the retinal pigment epithelium exists in an environment in which reactive oxygen easily generates (Invest Opthalmol V is Sci. 2006 July 47(7): 3164-3177). […]
After 2 hours of incubation, the cell culture supernatant was removed, and 200 μL of PBS was added to each well and promptly removed. Then, 100 μL of an equivalent mixture of a cell viability detection reagent Cell Titer-Glo (Promega) and PBS was added to each well and the luminescence produced by the reaction with ATP in living cells was measured with a luminometer (GloMax; Promega). The cell viability was calculated from the measured luminescence by the following formula and the cytoprotective effect of GGA against oxidative stress by hydrogen peroxide was examined. Cell viability(%)=100×[(luminescence of base- or GGA-treated group)/(luminescence of non-treated group)]

[1] = tested on: rat models with glaucoma induced by NMDA; assay: Protective effect for retinal ganglion cells against nerve damage by NMDA (thickness of inner plexiform layer); assay type: in vivo
Source text: In recent years the glutamate analogue NMDA (N-methyl-D-aspartate) has been widely reported to be one of causative agents of neurodegenerative diseases including Alzheimer's disease. In the ophthalmic field, NMDA is considered to be involved in optic nerve damage in glaucoma (Brain Research Bulletin, 81 (2010) 349-358). Accordingly, in this experiment rat models with glaucoma induced by NMDA were used to evaluate the neuroprotective effect of GGA.
To Sprague-Dawley (SD) rats, the all-trans form, the 5Z-mono-cis form and teprenone were separately pre-administered by oral administration (Test Example 1), intravitreal administration (Test Example 2) or ocular instillation administration (Test Example 3) and 5 μL of NMDA was administered into the vitreous body to induce nerve damage. For Test Example 2, a marketed therapeutic eye drop for glaucoma, AIPHAGAN (trade name), was intravitreally administered as a positive control once a day for five days. For each of Test Examples, a base not containing GGA or AIPHAGAN was administered as a control in the same manner as described above.
The dosage and regimen of Test Examples 1 to 3 are shown in Table 1 and the constitution of the base used in each tests are shown in Table 2.
Three days after administration of NMDA, the eyeballs were harvested, fixed with half Karnovsky's fixative for 24 hours, embedded in paraffin, thin sectioned and stained with hematoxylin-eosin (HE) to prepare histopathological sections. The histological sections were observed under an optical microscope and the thickness (μm) of the inner plexiform layer (IPL) of the retina was measured. From the thickness of the inner plexiform layer (IPL) of the retina, the neuroprotective effects of the test preparations were evaluated.

CC(=O)CC/C=C(\C)CC/C=C(\C)CC/C=C(\C)CCC=C(C)C [all-trans form, (5E,9E,13E)-6,10,14,18-tetramethyl-5,9,13,17-nonadecatetrae n-2-one]
cell viability compared with base-treated group (ARPE-19): significantly higher cell viabilities
neuroprotective effect against nerve damage by NMDA compared with base (IPL thickness) ([1]; Test Example 1: oral 800 mg/kg, 2 days, once a day, NMDA 4 mM, FIG. 6, Dunnett): significant neuroprotective effects
neuroprotective effect against nerve damage by NMDA compared with base (IPL thickness) ([1]; Test Example 2: intravitreal 0.05% w/v, 5 days, once a day, NMDA 40 mM, FIG. 7, Tukey-Kramer): significant neuroprotective effects
neuroprotective effect compared with AIPHAGAN Ophthalmic Solution 0.1% ([1]; Test Example 2: intravitreal 0.05% w/v, 5 days, NMDA 40 mM, FIG. 7): significantly superior neuroprotective effect
neuroprotective effect against nerve damage by NMDA compared with base (IPL thickness) ([1]; Test Example 3: ocular instillation 1% w/v, 5 days, 5 times per day, NMDA 4 mM, FIG. 9, t-test): significant neuroprotective effect
